The record followed here is ChEMBL document CHEMBL3877331, “Affinity-Based Selectivity Profiling of an In-Class Selective Competitive Inhibitor of Acyl Protein Thioesterase 2” (ACS Med Chem Lett, 2017).

Active and inactive are the calls of the source. The calls are words filed in the database; no cut-off is given here.

For assay [1], the target named is T1, Ribosyldihydronicotinamide dehydrogenase [quinone] (Homo sapiens) (UniProt P16083).
T1 sequence (whole entry): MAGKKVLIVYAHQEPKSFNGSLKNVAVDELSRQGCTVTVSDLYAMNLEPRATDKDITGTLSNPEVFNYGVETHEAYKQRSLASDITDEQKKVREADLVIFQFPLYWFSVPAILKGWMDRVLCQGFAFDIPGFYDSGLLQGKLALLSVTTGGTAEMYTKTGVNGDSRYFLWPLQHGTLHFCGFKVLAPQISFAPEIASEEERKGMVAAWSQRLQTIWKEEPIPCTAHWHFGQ
Kind of assay: Binding affinity to NQO2 in HEK293T cells at 50 uM incubated for 1 hr by mass spectrometry analysis relative to azide-PEG3-biotin. In kind it is cell-based. The note with it: HEK-293T.

Assay [2] has as its target FAD synthase (Homo sapiens) (UniProt Q8NFF5). Kind of assay: Binding affinity to FAD1 in HEK293T cells at 50 uM incubated for 1 hr by mass spectrometry analysis relative to azide-PEG3-biotin. In kind it is cell-based. Conditions: HEK-293T.
For assay [3], the target named is T2, Acyl-protein thioesterase 2 (Homo sapiens, UniProt O95372). Kind of assay: Competitive inhibition of HEK293T cells-derived His-tagged APT2 expressed in Escherichia coli BL21(DE3) preincubated for 30 mins followed by substrate addition by resorufin dye based acetate hydrolysis assay. Set-up: species or system HEK-293T.
The target of the next assay is T3, Pyridoxal kinase (Homo sapiens, UniProt O00764).
T3 sequence (O00764 whole entry): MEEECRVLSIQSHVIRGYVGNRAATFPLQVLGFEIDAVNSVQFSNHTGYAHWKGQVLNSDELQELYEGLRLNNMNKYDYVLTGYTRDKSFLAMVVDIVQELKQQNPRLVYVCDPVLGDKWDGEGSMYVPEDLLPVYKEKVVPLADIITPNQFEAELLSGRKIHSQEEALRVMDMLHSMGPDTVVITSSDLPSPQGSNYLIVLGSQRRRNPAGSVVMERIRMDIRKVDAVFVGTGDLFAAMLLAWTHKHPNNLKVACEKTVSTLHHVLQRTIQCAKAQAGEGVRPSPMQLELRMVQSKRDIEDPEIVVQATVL
Kind of assay: Inhibition of fluorescein-labeled ML349 binding to HEK293T cells-derived His-tagged PDXK expressed in Escherichia coli BL21(DE3) after 30 mins by fluorescence polarization assay. Set-up: species or system HEK-293T. (In general: Fluorescence polarisation rises when a labelled molecule tumbles more slowly, as on binding a larger partner.)

For assay [4], the target named is T2, Acyl-protein thioesterase 2. Kind of assay: Binding affinity to HEK293T cells-derived His-tagged APT2 expressed in Escherichia coli BL21(DE3) assessed as stoichiometric complex formation at 10 uM after 5 mins by electrospray ionization native mass spectrometry. The note with it: HEK-293T.
The target of assay [5] is T4, Pyridoxal kinase (Homo sapiens) (UniProt O00764).
T4 sequence (whole entry): T3 sequence (O00764 whole entry)
Kind of assay: Binding affinity to HEK293T cells-derived His-tagged PDXK expressed in Escherichia coli BL21(DE3) assessed as stoichiometric complex formation at 10 uM after 5 mins by electrospray ionization native mass spectrometry. The note with it: HEK-293T.

The target of assay [6] is T1, Ribosyldihydronicotinamide dehydrogenase [quinone] (Homo sapiens). Kind of assay: Binding affinity to HEK293T cells-derived His-tagged NQO2 expressed in Escherichia coli BL21(DE3) assessed as stoichiometric complex formation at 10 uM after 5 mins by electrospray ionization native mass spectrometry. The note with it: HEK-293T.
For assay [7], the target named is Deoxycytidine kinase (Homo sapiens) (UniProt P27707). Kind of assay: Binding affinity to DCK in HEK293T cells at 50 uM incubated for 1 hr by mass spectrometry analysis relative to azide-PEG3-biotin. Conditions: HEK-293T. It is filed as cell-based.
For assay [8], the target named is T2, Acyl-protein thioesterase 2. Kind of assay: Binding affinity to APT2 in HEK293T cells at 50 uM incubated for 1 hr by mass spectrometry analysis relative to o-ML349-biotin. It is filed as cell-based. Conditions: HEK-293T.
For assay [9], the target named is T4, Pyridoxal kinase (Homo sapiens). Kind of assay: Binding affinity to PDXK in HEK293T cells at 50 uM incubated for 1 hr by mass spectrometry analysis relative to azide-PEG3-biotin. In kind it is cell-based. The note with it: HEK-293T.
In assay [10] the target is T1, Ribosyldihydronicotinamide dehydrogenase [quinone] (Homo sapiens). Kind of assay: Binding affinity to NQO2 in HEK293T cells at 50 uM incubated for 1 hr by mass spectrometry analysis relative to o-ML349-biotin. It is filed as cell-based. The note with it: HEK-293T.
Assay [11] concerns the target Deoxycytidine kinase (Homo sapiens) (UniProt P27707). Kind of assay: Binding affinity to DCK in HEK293T cells at 50 uM incubated for 1 hr by mass spectrometry analysis relative to o-ML349-biotin. It is filed as cell-based. The note with it: HEK-293T.
Assay [12] has as its target T4, Pyridoxal kinase (Homo sapiens). Kind of assay: Binding affinity to PDXK in HEK293T cells at 50 uM incubated for 1 hr by mass spectrometry analysis relative to o-ML349-biotin. It is filed as cell-based. The note with it: HEK-293T.
Assay [13] has as its target FAD synthase (Homo sapiens) (UniProt Q8NFF5). Kind of assay: Binding affinity to FAD1 in HEK293T cells at 50 uM incubated for 1 hr by mass spectrometry analysis relative to o-ML349-biotin. It is filed as cell-based. Conditions: HEK-293T.
Assay [14] deals with T2, Acyl-protein thioesterase 2. Kind of assay: Inhibition of fluorescein-labeled ML349 binding to HEK293T cells-derived His-tagged APT2 expressed in Escherichia coli BL21(DE3) after 30 mins by fluorescence polarization assay. Set-up: species or system HEK-293T.
Assay [15] addresses Adenosine kinase (Homo sapiens) (UniProt P55263). Kind of assay: Binding affinity to ADK in HEK293T cells at 50 uM incubated for 1 hr by mass spectrometry analysis relative to o-ML349-biotin. In kind it is cell-based. The note with it: HEK-293T.
The target of assay [16] is T2, Acyl-protein thioesterase 2. Kind of assay: Binding affinity to APT2 in HEK293T cells at 50 uM preincubated for 1 hr followed by FP-TAMRA labeling by in-gel fluorescence assay. The note with it: HEK-293T. In kind it is cell-based.
The target in assay [17] is Adenosine kinase (Homo sapiens) (UniProt P55263). Kind of assay: Binding affinity to ADK in HEK293T cells at 50 uM incubated for 1 hr by mass spectrometry analysis relative to azide-PEG3-biotin. It is filed as cell-based. The note with it: HEK-293T.
Another assay concerns MDCK. Kind of assay: Binding affinity to APT2 in MDCK cells at 50 uM incubated for 1 hr by mass spectrometry analysis. It is filed as cell-based. Conditions: Canis lupus familiaris.
Assay [18] concerns the target T2, Acyl-protein thioesterase 2. Kind of assay: Binding affinity to APT2 in HEK293T cells at 50 uM incubated for 1 hr by mass spectrometry analysis relative to azide-PEG3-biotin. The note with it: HEK-293T. It is filed as cell-based.

A word on the Ki: it is the equilibrium dissociation constant of an inhibitor or competing ligand from its target. A word on the IC50: it is the midpoint of a concentration-inhibition curve.

T2 sequence (O95372 whole entry): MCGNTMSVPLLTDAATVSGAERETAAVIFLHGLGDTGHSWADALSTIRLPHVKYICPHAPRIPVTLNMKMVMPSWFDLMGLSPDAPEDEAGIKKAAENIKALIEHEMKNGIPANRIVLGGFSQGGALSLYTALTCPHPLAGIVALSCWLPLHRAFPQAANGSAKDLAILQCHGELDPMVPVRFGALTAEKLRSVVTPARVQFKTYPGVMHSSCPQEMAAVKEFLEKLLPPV
Sequence of FAD synthase (Homo sapiens) (Q8NFF5 whole entry): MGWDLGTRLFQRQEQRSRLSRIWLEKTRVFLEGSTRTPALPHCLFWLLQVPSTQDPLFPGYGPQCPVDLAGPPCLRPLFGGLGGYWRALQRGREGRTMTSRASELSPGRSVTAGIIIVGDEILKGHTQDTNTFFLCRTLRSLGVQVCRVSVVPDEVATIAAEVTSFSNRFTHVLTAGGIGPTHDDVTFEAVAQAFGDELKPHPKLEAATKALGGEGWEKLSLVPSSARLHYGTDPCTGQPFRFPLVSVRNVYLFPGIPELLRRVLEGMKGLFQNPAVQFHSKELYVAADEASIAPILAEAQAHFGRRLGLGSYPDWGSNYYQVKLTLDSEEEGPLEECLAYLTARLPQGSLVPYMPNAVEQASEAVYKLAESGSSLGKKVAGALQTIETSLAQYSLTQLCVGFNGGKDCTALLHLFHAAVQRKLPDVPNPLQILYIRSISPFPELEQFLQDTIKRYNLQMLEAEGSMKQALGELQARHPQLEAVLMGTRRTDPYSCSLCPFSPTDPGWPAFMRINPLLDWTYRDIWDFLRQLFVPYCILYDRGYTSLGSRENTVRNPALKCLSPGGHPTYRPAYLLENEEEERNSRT
Sequence of Adenosine kinase (Homo sapiens) (P55263 2-362 limits assumed): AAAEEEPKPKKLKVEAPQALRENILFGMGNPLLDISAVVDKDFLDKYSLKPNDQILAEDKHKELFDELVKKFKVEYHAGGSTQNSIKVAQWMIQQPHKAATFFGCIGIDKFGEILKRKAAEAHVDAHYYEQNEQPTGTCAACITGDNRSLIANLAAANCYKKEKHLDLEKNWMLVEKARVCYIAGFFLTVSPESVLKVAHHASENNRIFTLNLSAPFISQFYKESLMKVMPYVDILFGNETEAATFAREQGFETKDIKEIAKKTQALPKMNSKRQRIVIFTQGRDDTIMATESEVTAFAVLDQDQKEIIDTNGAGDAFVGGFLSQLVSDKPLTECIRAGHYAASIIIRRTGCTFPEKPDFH
Sequence of Deoxycytidine kinase (Homo sapiens) (P27707 whole entry, looked up): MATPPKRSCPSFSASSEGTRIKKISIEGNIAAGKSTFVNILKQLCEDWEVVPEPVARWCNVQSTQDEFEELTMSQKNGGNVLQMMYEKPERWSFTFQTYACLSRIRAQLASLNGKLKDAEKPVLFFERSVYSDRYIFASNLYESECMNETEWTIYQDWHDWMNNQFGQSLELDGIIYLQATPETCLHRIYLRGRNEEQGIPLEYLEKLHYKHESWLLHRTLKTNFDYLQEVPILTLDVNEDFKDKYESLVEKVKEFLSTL

On to `O=C(CCCC[C@@H]1SC[C@@H]2NC(=O)N[C@@H]21)NCCOCCOCCOCCn1cc(COc2ccccc2N2CCN(C(=O)c3cc4c(s3)-c3ccccc3S(=O)(=O)C4)CC2)nn1`, for which the fold change (FC) in [1] and in assay [2] was 3 in each case. Besides, the Ki in assay [3] is more than 10 µM.

Molecule `[N-]=[N+]=NCCOCCOCCOCCNC(=O)CCCC[C@@H]1SC[C@@H]2NC(=O)N[C@@H]21` registered an inhibition constant Ki in assay [3] of more than 10 µM.

Molecule `COc1ccc(N2CCN(C(=O)c3cc4c(s3)-c3ccccc3S(=O)(=O)C4)CC2)cc1` returned an IC50 at Pyridoxal kinase of more than 10 µM. Further, the outcome in assay [4], in assay [5] and in [6] was Active.

With `O=C(CCCC[C@@H]1SC[C@@H]2NC(=O)N[C@@H]21)NCCOCCOCCOCCn1cc(COc2ccc(N3CCN(C(=O)c4cc5c(s4)-c4ccccc4S(=O)(=O)C5)CC3)cc2)nn1`, the fold change (FC) in assay [7], in assay [8], in assay [9], in assay [1], in [10] and in [11] was more than 5 in each case. Moreover, the fold change (FC) in [12], in assay [13], in assay [2], in [15], in assay [17] and in [18] was more than 5 throughout. Besides, the IC50 (on Pyridoxal kinase; in assay [14]) was more than 10 µM throughout. Also, the result (in assay [4]; in assay [5]; in [6]; in assay [16]; with MDCK) was Active. The Ki in assay [3] is 1.1 µM.
